From patent US20170362283A1, “NISIN-BASED COMPOUNDS AND USE THEREOF IN THE TREATMENT OF BACTERIAL INFECTIONS” (UNIVERSITEIT UTRECHT HOLDING B.V., priority 2015, published 2017)
Converted amounts (≈) assume the structure as drawn. Read-outs that look alike come from different tables or passages of the source.

Tests used:
erythrocytes = experiment: Hemolysis assay; conditions: human erythrocytes, 1 h
Experimental: Human whole blood was centrifuged at 600×g for 15 min and levels of plasma and hematocrit were marked on the tube. Plasma was removed and the erythrocytes washed 3× with PBS (centrifuging at 600×g for 15 mins). After discarding the supernatant, the packed cells were stored on ice. 100 μL of the peptides (128 μg/mL in PBS, 2% DMSO) as well as a control solution comprised of 2% DMSO in PBS were added to the top row of a polypropylene, round-bottom 96 well plate and 50 μL of PBS to the rest of the wells. The peptides and the DMSO control solutions were then diluted serially down the rows. 200 μL of the packed cells were added to PBS (10 mL) and 50 μL of this suspension was added to each well. A column with DI water containing 0.1% Triton X-100 was used as the 100% lysis control, and the column containing the serially-diluted PBS (1.0% DMSO) control served as the 0% lysis reference. The cells were incubated at 37° C. for 1 h. After incubation the plates were centrifuged (800×g, 5 min) and 25 μL of the supernatant was added to 100 μL DI water in a flat-bottom plate (polystyrene). The absorption at 414 nm was recorded to measure the amount of free hemoglobin.

MRSA USA300 = assay type: cell-based, Staphylococcus aureus; conditions: duplicate experiments
Experimental: (§1) Determining the MIC value is a standard technique well known to the skilled person, in particular the MIC value can be measured using method M07-A9 (CLSI standard, January 2012, Vol. 32, No. 2, “Methods for Dilution Antimicrobial Susceptibility Tests for Bacteria That Grow Aerobically”).
(§2) Different microorganisms (from glycerol stock) were plated out on blood agar and incubated at 37° C. for 24 hours. A colony was selected and 2×5 mL of TSB was inoculated. The samples and a sterile control were cultured for 16-20 hours at 37° C. Comparative compound B is nisin acting as a control. Comparative compound C is vancomycin, also acting as a control. Comparative compounds A, D and E are also control compounds not part of the present invention.
(§3) The overnight cultures were diluted to 0.5×10^6 CFU in TSB. 50 μL of the bacterial solution was added to each well and the plates were sealed with an adhesive membrane and incubated at 37° C. for 16 hours. The next day, the plates were visually inspected for bacterial growth.

VRE 155 = assay type: cell-based; conditions: duplicate experiments
Experimental: as §1, §2, §3

E. coli = conditions: duplicate experiments
Experimental: as §1
as §2, with “Comparative compound C is vancomycin, also acting as a control.” left out
as §3

S. aureus = conditions: duplicate experiments
Experimental: as §1
as §2, with “Comparative compound C is vancomycin, also acting as a control.” left out
as §3

B. subtilis = conditions: duplicate experiments
Experimental: as §1
as §2, with “Comparative compound C is vancomycin, also acting as a control.” left out
as §3

MRSA WKZ2 = assay type: cell-based, Staphylococcus aureus; conditions: duplicate experiments
Experimental: as §1, §2, §3

M. luteus = assay type: cell-based; conditions: duplicate experiments
Experimental: as §1, §2, §3

Q: What does the source list for `C=C1NC(=O)[C@H]([C@@H](C)CC)NC(=O)[C@H](NC(=O)C(=CC)NC(=O)[C@@H](N)[C@@H](C)CC)CSC[C@@H](C(=O)N[C@H]2C(=O)N3CCC[C@H]3C(=O)NCC(=O)N[C@H](C(=O)N[C@@H](CCCCNC(C)=O)C(=O)NCCCCCCCCCCCC)CS[C@H]2C)NC(=O)[C@H](CC(C)C)NC1=O` [Compound (20)]?
A: hemolysis (erythrocytes; up to the highest concentration tested (64 μg/mL)): no detectable hemolysis; MIC values MRSA USA300 (MRSA USA300): >64 µg/mL; MIC values VRE 155 (VRE 155): 4 µg/mL (≈ 2.94 µM)

Q: Which MIC (thirty VRE strains; VRE strain E0013, GBR, vanA) does the source give for vancomycin here?
A: 32 µg/mL

Q: What about the MIC (thirty VRE strains; VRE strain E0072, NLD, vanA) of the same compound?
A: 8 µg/mL

Q: What about the MIC (thirty VRE strains; VRE strain E0300, USA, vanA) of the same compound?
A: >128 µg/mL

Q: What about the MIC (thirty VRE strains; VRE strain E0321, FRA, vanA) of the same compound?
A: >128 µg/mL

Q: What about the MIC (thirty VRE strains; VRE strain E0333, ISR, vanA) of the same compound?
A: >128 µg/mL

Q: And the MIC (thirty VRE strains; VRE strain E0338, ITA, vanA)?
A: >128 µg/mL

Q: What about the MIC (thirty VRE strains; VRE strain E0341, GBR, vanA) of the same compound?
A: 128 µg/mL

Q: What about the MIC (thirty VRE strains; VRE strain E0506, AUS, vanA) of the same compound?
A: >128 µg/mL

Q: What about the MIC (thirty VRE strains; VRE strain E0745, NLD, vanA) of the same compound?
A: 64 µg/mL

Q: And the MIC (thirty VRE strains; VRE strain E1130, USA, vanA)?
A: >128 µg/mL

Q: What about the MIC (thirty VRE strains; VRE strain E1441, GRC, vanA) of the same compound?
A: 128 µg/mL

Q: And the MIC (thirty VRE strains; VRE strain E1679, BRA, vanA)?
A: >128 µg/mL

Q: And the MIC (thirty VRE strains; VRE strain E1763, BEL, vanA)?
A: >128 µg/mL

Q: What about the MIC (thirty VRE strains; VRE strain E2297, USA, vanA) of the same compound?
A: 128 µg/mL

Q: And the MIC (thirty VRE strains; VRE strain E2359, SGP, vanB)?
A: <1-1 μg/mL

Q: And the MIC (thirty VRE strains; VRE strain E2365, HUN, vanB)?
A: <1 µg/mL

Q: And the MIC (thirty VRE strains; VRE strain E2373, SRB, vanA)?
A: >128 µg/mL

Q: And the MIC (thirty VRE strains; VRE strain E6016, LVA, vanA)?
A: 128 µg/mL

Q: What about the MIC (thirty VRE strains; VRE strain E7312, NLD, vanA) of the same compound?
A: 64 µg/mL

Q: What about the MIC (thirty VRE strains; VRE strain E7314, NLD, vanB) of the same compound?
A: >128 µg/mL

Q: What about the MIC (thirty VRE strains; VRE strain E7319, NLD, vanA) of the same compound?
A: >128 µg/mL

Q: What about the MIC (thirty VRE strains; VRE strain E7329, NLD, vanA) of the same compound?
A: <1 µg/mL

Q: What about the MIC (thirty VRE strains; VRE strain E7401, NLD, vanB) of the same compound?
A: 16 µg/mL

Q: And the MIC (thirty VRE strains; VRE strain E7403, NLD, vanB)?
A: <1 µg/mL

Q: What about the MIC (thirty VRE strains; VRE strain E7413, NLD, vanA) of the same compound?
A: >128 µg/mL

Q: What about the MIC (thirty VRE strains; VRE strain E7424, NLD, vanB) of the same compound?
A: >128 µg/mL

Q: What about the MIC (thirty VRE strains; VRE strain E7464, NLD, vanB) of the same compound?
A: 2 µg/mL

Q: What about the MIC (thirty VRE strains; VRE strain E8218, NLD, vanB) of the same compound?
A: 8 µg/mL

Q: What about the MIC (thirty VRE strains; VRE strain E8235, NLD, vanB) of the same compound?
A: 8 µg/mL

Q: What about the MIC (thirty VRE strains; VRE strain E8237, NLD, vanA) of the same compound?
A: 128 µg/mL

Q: And the MIC50 (thirty VRE strains; thirty VRE strains)?
A: MIC50 = 128 μg/mL

Q: What about the MIC90 (thirty VRE strains; thirty VRE strains) of the same compound?
A: MIC90 = >128 μg/mL

Q: And the “MIC values E. coli” value (E. coli)?
A: >10 µg/mL

Q: And the “MIC values S. aureus” value (S. aureus)?
A: 0.25 to 0.31 µg/mL

Q: And the “MIC values B. subtilis” value (B. subtilis)?
A: 0.03 to 0.06 µg/mL

Q: And the hemolysis (erythrocytes; at 32 μg/mL)?
A: negligible hemolysis

Q: What about the “MIC values MRSA WKZ2” value (MRSA WKZ2) of the same compound?
A: 0.625 µg/mL

Q: And the “MIC values MRSA USA300” value (MRSA USA300)?
A: 0.625 µg/mL

Q: And the “MIC values VRE 155” value (VRE 155)?
A: >10 µg/mL

Q: And the “MIC values M. luteus” value (M. luteus)?
A: 0.03 µg/mL
